Source: patent US7834028B2, “Pyrazolo-tetrahydro pyridine derivatives as orexin receptor antagonists” (Actelion Pharmaceuticals Ltd., priority 2006, dated 2010)

Assays:
human orexin-1 receptor = molecular target: T1, human orexin-1 receptor (Homo sapiens, UniProt O43613); test: Intracellular calcium measurements (FLIPR), orexin-A induced, CHO cells expressing human orexin-1 receptor; type: cell-based; conditions: 10 nM orexin-A as agonist, read-out: IC50 OX1
T1 construct: expressed in transfected cells; host or cells: CHO cells (G418 selection)
T1 sequence (O43613 1-425): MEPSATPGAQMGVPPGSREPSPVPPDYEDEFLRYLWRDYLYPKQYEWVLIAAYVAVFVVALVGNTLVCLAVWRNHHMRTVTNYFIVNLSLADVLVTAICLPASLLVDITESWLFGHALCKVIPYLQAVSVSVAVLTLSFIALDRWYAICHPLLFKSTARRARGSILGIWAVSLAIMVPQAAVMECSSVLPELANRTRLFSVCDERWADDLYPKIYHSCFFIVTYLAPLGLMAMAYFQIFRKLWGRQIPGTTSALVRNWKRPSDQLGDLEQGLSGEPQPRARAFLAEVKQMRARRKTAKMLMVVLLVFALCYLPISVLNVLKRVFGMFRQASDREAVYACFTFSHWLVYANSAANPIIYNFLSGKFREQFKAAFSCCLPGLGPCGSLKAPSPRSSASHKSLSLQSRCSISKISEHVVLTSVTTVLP
Description: (§1) The orexin receptor antagonistic activity of the compounds of formula (I) and/or (Ia) is determined in accordance with the following experimental method.
(§2) Intracellular Calcium Measurements:
(§3) Chinese hamster ovary (CHO) cells expressing the human orexin-1 receptor and the human orexin-2 receptor, respectively, are grown in culture medium (Ham F-12 with L-Glutamine) containing 300 μg/ml G418, 100 U/ml penicillin, 100 μg/ml streptomycin and 10% inactivated fetal calf serum (FCS). The cells are seeded at 80'000 cells/well into 96-well black clear bottom sterile plates (Costar) which have been precoated with 1% gelatine in Hanks' Balanced Salt Solution (HBSS). All reagents are from Gibco BRL. The seeded plates are incubated overnight at 37° C. in 5% CO2.
(§4) Human orexin-A as an agonist is prepared as 1 mM stock solution in methanol:water (1:1), diluted in HBSS containing 0.1% bovine serum albumin (BSA) and 2 mM HEPES for use in the assay at a final concentration of 10 nM.
(§5) Antagonists are prepared as 10 mM stock solution in DMSO, then diluted in 96-well plates, first in DMSO, then in HBSS containing 0.1% bovine serum albumin (BSA) and 2 mM HEPES.
(§6) On the day of the assay, 100 μl of loading medium (HBSS containing 1% FCS, 2 mM HEPES, 5 mM probenecid (Sigma) and 3 μM of the fluorescent calcium indicator fluo-3 AM (1 mM stock solution in DMSO with 10% pluronic acid) (Molecular Probes) is added to each well.
(§7) The 96-well plates are incubated for 60 min at 37° C. in 5% CO2. The loading solution is then aspirated and cells are washed 3 times with 200 μl HBSS containing 2.5 mM probenecid, 0.1% BSA, 2 mM HEPES. 100 μl of that same buffer is left in each well.
(§8) Within the Fluorescent Imaging Plate Reader (FLIPR, Molecular Devices), antagonists are added to the plate in a volume of 50 μl, incubated for 20 min and finally 100 μl of agonist is added. Fluorescence is measured for each well at 1 second intervals, and the height of each fluorescence peak is compared to the height of the fluorescence peak induced by 10 nM orexin-A with buffer in place of antagonist. For each antagonist, IC50 value (the concentration of compound needed to inhibit 50% of the agonistic response) is determined. Antagonistic activities of compounds are in the nanomolar range with respect to OX1 and OX2 receptors.

human orexin-2 receptor = molecular target: T2, human orexin-2 receptor (Homo sapiens, UniProt O43614); test: Intracellular calcium measurements (FLIPR), orexin-A induced, CHO cells expressing human orexin-2 receptor; type: cell-based; conditions: 10 nM orexin-A as agonist, read-out: IC50 OX2
T2 construct: expressed in transfected cells; host or cells: CHO cells (G418 selection)
T2 sequence (O43614 1-444): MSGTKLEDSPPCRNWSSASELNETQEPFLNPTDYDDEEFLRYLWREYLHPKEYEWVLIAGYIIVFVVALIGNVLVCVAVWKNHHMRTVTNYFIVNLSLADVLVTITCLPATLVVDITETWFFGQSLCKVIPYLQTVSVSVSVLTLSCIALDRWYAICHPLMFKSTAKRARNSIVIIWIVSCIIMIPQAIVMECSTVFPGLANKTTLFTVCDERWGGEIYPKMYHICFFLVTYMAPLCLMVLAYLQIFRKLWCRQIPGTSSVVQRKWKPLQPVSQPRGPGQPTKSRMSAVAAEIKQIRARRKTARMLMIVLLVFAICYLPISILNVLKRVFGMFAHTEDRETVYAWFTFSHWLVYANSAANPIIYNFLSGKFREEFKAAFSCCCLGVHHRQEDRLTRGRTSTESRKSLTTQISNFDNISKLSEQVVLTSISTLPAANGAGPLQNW
Description: as §1, §2, §3, §4, §5, §6, §7, §8

Compound	IC50 (human orexin-1 receptor)	IC50 (human orexin-2 receptor)
CCn1nc(C)c2c1CCN([C@@H](C(=O)NC)c1ccccc1)[C@H]2CCc1ccc(C)cc1 (stereo in doubt) [Example 6, 2-[1-Ethyl-3-methyl-4-(2-p-tolyl-ethyl)-1,4,6,7-tetrahydro-pyrazolo[4,3-c]pyridin-5-yl]-N-methyl-2-phenyl-acetamide]	75 nM	4 nM
CCn1nc(C)c2c1CCN(C(C(=O)NC)c1ccccc1)C2CCc1cc(C(F)(F)F)ccc1F (stereo not drawn) [Example 3, 2-{1-Ethyl-4-[2-(2-fluoro-5-trifluoromethyl-phenyl)-ethyl]-3-methyl-1,4,6,7-tetrahydro-pyrazolo[4,3-c]pyridin-5-yl}-N-methyl-2-phenyl-acetamide]	49 nM	3 nM
CCn1nc(C)c2c1CCN([C@@H](C(=O)NC)c1ccccc1)[C@H]2CCc1ccc(C(F)(F)F)cc1F [Example 31, 2-{1-Ethyl-4-[2-(2-fluoro-4-trifluoromethyl-phenyl)-ethyl]-3-methyl-1,4,6,7-tetrahydro-pyrazolo[4,3-c]pyridin-5-yl}-N-methyl-2-phenyl-acetamide]	52 nM	8 nM
CCn1nc(C)c2c1CCN([C@@H](C(=O)NC)c1ccccc1)[C@H]2CCc1ccc(C)c(F)c1 [Example 32, 2-{1-Ethyl-4-[2-(3-fluoro-4-methyl-phenyl)-ethyl]-3-methyl-1,4,6,7-tetrahydro-pyrazolo[4,3-c]pyridin-5-yl}-N-methyl-2-phenyl-acetamide]	49 nM	2 nM
CCn1nc(C)c2c1CCN([C@@H](C(=O)NC)c1ccccc1)[C@H]2CCc1ccc(C)c(C)c1 [Example 33, 2-{4-[2-(3,4-Dimethyl-phenyl)-ethyl]-1-ethyl-3-methyl-1,4,6,7-tetrahydro-pyrazolo[4,3-c]pyridin-5-yl}-N-methyl-2-phenyl-acetamide]	20 nM	4 nM
CCn1nc(C)c2c1CCN([C@@H](C(=O)NC)c1ccccc1)[C@H]2CCc1ccc(C)cc1C [Example 35, 2-{4-[2-(2,4-Dimethyl-phenyl)-ethyl]-1-ethyl-3-methyl-1,4,6,7-tetrahydro-pyrazolo[4,3-c]pyridin-5-yl}-N-methyl-2-phenyl-acetamide]	131 nM	7 nM
